In JP2022046588A, “治療用組成物およびその使用” (priority 2016, dated 2017):
Like-named read-outs stand apart in the source and are kept apart here.

Key:
[1] = test system: human melanoma cell line A-2058 [ヒト黒色腫細胞株A-2058]; test: MTT cell proliferation assay, A-2058; type: cell-based
[2] = test system: human colon adenocarcinoma cell line DLD-1 [ヒト結腸腺癌細胞株DLD-1]; test: MTT cell proliferation assay, DLD-1; type: cell-based
[3] = test system: human epidermoid carcinoma cell line A-431 [ヒト類表皮癌細胞株A-431]; test: MTT cell proliferation assay, A-431; type: cell-based; details: for inhibition at 50 µg/mL: Homo sapiens, A-431, Example 7, 50 μg/ml, 24 h
[4] = test system: human basal cell carcinoma cell line TE 354.T [ヒト基底細胞癌細胞株TE 354.T]; test: MTT cell proliferation assay, TE 354.T; type: cell-based; details: for inhibition at 50 µg/mL: Homo sapiens, Example 8, 50 μg/ml, 24 h
[5] = test system: human esophageal cancer cell line KYSE-30 [ヒト食道癌細胞株KYSE-30]; test: MTT cell proliferation assay, KYSE-30; type: cell-based; details: for inhibition at 58.5 µg/mL: low but significant
[6] = test system: human gastric cancer cell line NCI-N87 [ヒト胃癌細胞株NCI-N87]; test: MTT cell proliferation assay, NCI-N87
[7] = Homo sapiens, NCI-N87, read-out: antiproliferative activity

In the case of `CCCCCCCCCCCCCC(O)CCCCC(O)CC(=O)OCC(O)CO` (stereo not drawn) [GLY-0Ac-2, 1-(3,8-ジヒドロキシヘンエイコサノイル)グリセロール], the “potency ranking (in words)” value ([1]; Example 6, 50 μg/ml, highly purified compounds) is reported as “最も強力”.

For `O=c1[nH]cc(F)c(=O)[nH]1` [5-フルオロウラシル], the “antiproliferative activity (in words)” value ([2]; Example 9, 5-FU at 0.65 and 1.95 μg/ml) was “低い且つ有意ではない活性”, the “antiproliferative activity (in words)” value ([2]; Example 10, 5-FU at 6.5, 19.5 and 58.5 μg/ml) was “低い且つ有意ではない活性” and the “antiproliferative activity (in words)” value ([1]; Example 6, 5-FU at 0.195, 0.65 and 1.95 μg/ml) was “低い且つ有意ではない活性”. The “antiproliferative activity (in words)” value ([3]; Example 7, 5-FU at 0.195, 0.65 and 1.95 μg/ml) was “低い且つ有意ではない活性”, the “antiproliferative activity (in words)” value ([4]; Example 8, 5-FU at 0.195, 0.65 and 1.95 μg/ml) was “低い且つ有意ではない活性” and the “antiproliferative activity (in words)” value ([5]; Example 13, 5-FU at 6.5 and 19.5 μg/ml) was “有意ではない活性”. For the same compound, the “antiproliferative activity (in words)” value ([5]; Example 14, 5-FU at 6.5 and 19.5 μg/ml) was “有意ではない活性”, the inhibition at 58.5 µg/mL ([5]; Homo sapiens, KYSE-30, Example 13, 5-FU at 58.5 μg/ml, read-out: antiproliferative activity) was 17% and the inhibition at 58.5 µg/mL ([5]; Homo sapiens, KYSE-30, Example 14, 5-FU at 58.5 μg/ml, read-out: inhibition of proliferation) was 16.8%. The “activity ranking of 5-FU concentrations (in words)” value ([6]; Example 11, 5-FU at 6.5 μg/ml (of 6.5, 19.5, 58.5 μg/ml)) was “最も高い活性”, the “antiproliferative activity (in words)” value ([6]; Example 11, 5-FU at 6.5, 19.5 and 58.5 μg/ml) was “低い且つ有意ではない活性” and the “activity ranking of 5-FU concentrations (in words)” value ([6]; Example 12, 5-FU at 6.5 μg/ml (of 6.5, 19.5, 58.5 μg/ml)) was “最も高い活性”. For the same compound, the “antiproliferative activity (in words)” value ([6]; Example 12, 5-FU at 6.5, 19.5 and 58.5 μg/ml) was “低い且つ有意ではない活性”.

In the case of `CCCCCCCCCCCCC(O)CCCCC(O)CC(=O)OCC(O)COC(C)=O` (stereo not drawn) [GLY-1Ac-1, 1-(3,8-ジヒドロキシエイコサノイル)3-アセトキシグリセロール], the inhibition at 25 µg/mL ([2]; Homo sapiens, DLD-1, Example 9, second assay (retest), 25 μg/ml, read-out: antiproliferative activity) is reported as 13%, the inhibition at 50 µg/mL ([2]; Homo sapiens, DLD-1, Example 9, second assay (retest), 50 μg/ml, read-out: antiproliferative activity) is reported as 94% and the inhibition at 50 µg/mL [3] is reported as 80.6%. For the same compound, the inhibition at 50 µg/mL [4] was 27.3%, the “potency ranking (in words)” value ([5]; Example 13, 50 μg/ml) was “最も強力” and the inhibition at 10 µg/mL ([5]; Homo sapiens, KYSE-30, Example 13, 10 μg/ml, not statistically significant, read-out: antiproliferative activity) was 9%. It also gave an inhibition at 25 µg/mL ([5]; Homo sapiens, KYSE-30, Example 13, 25 μg/ml, read-out: antiproliferative activity) of 50%, an inhibition at 10 µg/mL [6, 7] of 39% and an inhibition at 25 µg/mL [6, 7] of 86%.

With `CCCCCCCCCCCCCC(O)CCCCC(O)CC(=O)OCC(O)COC(C)=O` (stereo not drawn) [GLY-1Ac-2, 1-(3,8-ジヒドロキシヘンエイコサノイル)3-アセトキシグリセロール] the “potency ranking (in words)” value ([2]; Example 9, first assay, 50 μg/ml) was “最も強力”.

`CCCCCCCCCCCCC(O)CCCCC(O)CC(=O)OCC(O)CO` (stereo not drawn) [GLY-0Ac-1, 1-(3,8-ジヒドロキシエイコサノイル)グリセロール] was tested, and the inhibition at 50 µg/mL [3] was 81.5% and the inhibition at 50 µg/mL [4] was 38%.

In the case of `CCCCCCCCCCCCCCCC(=O)OCC(O)CO` (stereo not drawn) [MGP, モノパルミチン酸グリセロール], the inhibition at 50 µg/mL ([5]; Homo sapiens, KYSE-30, Example 13, 50 μg/ml, read-out: inhibition of proliferation / antiproliferative activity) is reported as 75%.
